In patent publication US5753631A, “Intercellular adhesion mediators” (Cytel Corporation, priority 1995, dated 1998):

What was measured:
[1] = tested on: histamine induced leukocyte rolling in rat mesenteric venules; experiment: Histamine induced leukocyte rolling and adherence in rat mesenteric venules (intravital microscopy); format: in vivo, rat (male Sprague-Dawley); conditions: for effect on histamine induced leukocyte rolling: 10^-5 M histamine, FIG. 15; for Erythrocyte velocity / Leukocyte adherence / Leukocyte emigration / Venular diameter / Wall shear rate: with histamine 10^-5 M, Z, SLN 10 mg/Kg i.v., antibodies 2 mg/Kg i.v.
Description: Surgical procedure. Sixty-four male Sprague-Dawley rats (200-250 g) were maintained on a purified laboratory diet and fasted for 24 hours prior to the experiment. The animals were initially anesthetized with pentobarbital (65 mg/kg body weight), then a tracheotomy was performed to facilitate breathing during the experiment. The right carotid artery was cannulated and systemic arterial pressure was measured with a Statham (Oxnard, Calif.) P23A pressure transducer connected to the carotid artery cannula. Systemic blood pressure and heart rate were continuously recorded with a Grass physiologic recorder (Grass Instruments, Massachusetts). The left jugular vein was also cannulated for drug administration and blood sample collection. After a midline abdominal incision a segment of the mid-jejunum was exteriorized. All exposed tissue was moistened with saline-soaked gauze to minimize evaporation and dehydration.
Intravital microscopy. Rats were placed in a supine position on an adjustable plexiglass microscope stage and the mesentery was draped over an optically clear coverslip that allowed for observation of a 2 cm^2 segment of tissue. The temperature of the pedestal was maintained at 37° C. with a constant temperature circulator (Fisher Scientific, model 80). A small rubber gasket (area=3.14 cm^2) was placed on the mesentery and the outside area of contact between the gasket and mesentery was sealed (to prevent leakage of superfusate from the ring) with a mixture of high vacuum grease (Dow Corning Corp., Midland, Mich.) and white petrolatum (E. Fougera & Co., Melville, N.Y.). Rectal and mesenteric temperatures were continuously monitored using an electrothermometer. The exposed bowel wall was covered with Saran Wrap (Dow Chemical Co., Indiana), and the mesenteric tissue within the gasket was suffused with warmed bicarbonate-buffered saline (BBS; pH 7.4) that was bubbled with a mixture of 5% O2; 5% CO2; 90% N2.
An inverted microscope (Nikon Optiphoto, Japan) with a ×40 objective lens (Nikon Optiphoto, Japan) and a ×10 eyepiece was used to observe the mesenteric microcirculation. The mesentery was transilluminated with a 12 V-100 W direct current-stabilized light source. A video camera (Hitachi, VK-C150, Japan) mounted on the microscope projected the image onto a color monitor (Sony, PVM-2030, Japan), and the images were recorded using a video cassette recorder (Panasonic, NV8950, Japan). A video time-date generator (Panasonic, WJ810, Japan) projected the time, date, and stopwatch function onto the monitor.
Single unbranched venules with diameters ranging between 25 μm and 35 μm and a length>150 μm were selected for study. Venular diameter (Dv) was measured either on- or off-line using a video image-shearing monitor (IPM, La Mesa, Calif.). The number of adherent leukocytes was determined off-line during playback of videotaped images. A leukocyte was considered to be adherent to venular endothelium if it remained stationary for a period equal to or greater than 30 seconds. Adherent cells were expressed as the number per 100 μm length of venule. The number of emigrated leukocytes was also determined off-line during playback of videotaped images. Ary interstitial leukocytes present in the mesentery at the onset of the experiment were subtracted from the total number of leukocytes that accumulated during the course of the experiment. Leukocyte emigration was expressed as the number per microscopic field (1.7×10^-2 mm^2) or 150 μm length of venule. Rolling leukocytes were defined as those white blood cells that moved at a velocity less than that of erythrocytes in the same stream. The flux of rolling leukocytes was determined as the number of rolling leukocytes which crossed a fixed point on the venule over a given period of time. Leukocyte rolling velocity was determined from the time required for a leukocyte to roll along a given distance of the venule.

[2] = tested on: IgG immune complex-induced acute lung injury; experiment: IgG immune complex-induced acute lung injury in the rat; format: in vivo, rat (male Long-Evans); conditions: for effect on IgG immune complex-induced neutrophil accumulation / lung injury: conclusion in words
[3] = tested on: IgA immune complex induced lung injury; experiment: IgA immune complex-induced acute lung injury in the rat; format: in vivo, rat (male Long-Evans); conditions: conclusion in words
Description: Groups of rats were dosed with either vehicle, SLN-OH (100 μpg), or with SLX-OH (100 μg) […] post induction of inflammation. Each bar represents the mean of 6 animals and vertical lines represent the standard error of the mean.
Adult male (300 g) specific pathogen-free Long-Evans rats purchased from Charles River Labs (Portage, Mich.) were employed in the studies. For the induction of IgG immune complex pulmonary inflammation rabbit polyclonal IgG rich in antibody to bovine serum albumin (antiBSA) was purchased from Organon Teknika (Westchester, PA). Intraperitoneal ketamine (10 mg/Kg) was administered for anesthesia. 2.5 mg of anti-BSA in a volume of 300 μl was instilled intratracheally via a small intratracheal catheter during inspiration after surgical exposure of the trachea. Intravenous injection of 10 mg BSA was injected intravenously to generate immune complex formation. Trace amounts of ^125 I-BSA and ^51 Cr-RBC were administered with the BSA as markers for plasma and RBC extravasation respectively. Rats were sacrificed 4 h later and lung injury was assessed by the ratio of radiolabelled albumin in the lungs relative to the circulation (permeability), the ratio of RBC in the lungs relative to the circulation (hemorrhage) and the amount of myeloperoxidase activity in a lung homogenate (neutrophil accumulation). For induction of IgA immune complex induced lung injury 1.2 mg of a murine myeloma IgA protein specific for dinitrophenol (DNP) was instilled intratracheally and 3.3 mg DNP-bovine serum albumin injected intravenously. Lung injury was assessed in the same manner described for IgG-induced lung injury.
SLX-OH, Z, the non-fucosylated control oligosaccharide SLN, or an equivalent volume of PBS were injected intravenously in three equally divided doses at 2, 2.5, and 3 h following deposition of immune complexes. This schedule for injections was selected since it coincides with the time during which rapid expression of E-selectin occurs in the pulmonary vasculature.

[4] = tested on: coronary vascular endothelium; experiment: Adherence of cat PMNs to coronary endothelium in vitro; format: cell-based
Description: Endothelial dependent relaxation of coronary artery rings was determined by measuring the acetylcholine-induced relaxation of rings previously contracted with the thromboxane A2 mimetic U46619. Data are expressed as percentage relaxation. Creatinine kinase enzyme levels were measured immunochemically in plasma samples collected at the end of the reperfusion period. The adherence of PMNs to sections of coronary artery was measured in vitro using fluorescene labelled autologous cat neutrophils.

[5] = i.v. at 2.5, 3.0 and 3.5 h (FIG. 18), P<0.05

Row | SMILES | effect on histamine induced leukocyte rolling [1] | Erythrocyte velocity [1] [mm/sec] | Leukocyte adherence [1] [per 100 μm] | Leukocyte emigration [1] [per field] | Venular diameter [1] [μm] | Wall shear rate [1] [s⁻¹] | effect on IgG immune complex-induced neutrophil accumulation / lung injury [2] | also measured
1 | CC(=O)NC1C(O)OC(CO)C(OC2OC(CO)C(O)C(OC3(C(=O)O)CC(O)C(NC(C)=O)C(C(O)C(O)CO)O3)C2O)C1O (stereo not shown) [SLN, reference compound] | had no effect | 3.0 ± 0.5 | 5.5 ± 1.4 | 4.8 ± 2.8 | 31 ± 2 | 495 ± 28 | did not inhibit IgG immune complex induced lung injury | effect on hemorrhage ([2]; versus PBS treated animals): no decrease in hemorrhage; effect on lung content of MPO ([2]; versus PBS treated animals): no decrease in lung content of MPO; effect on vascular permeability ([2]; versus PBS treated animals): no alteration in vascular permeability value
2 | CCO[C@@H]1O[C@H](CO)[C@H](O)[C@H](O[C@@H]2O[C@H](CO)[C@@H](O[C@@H]3O[C@H](CO)[C@H](O)[C@H](O[C@]4(C(=O)O)C[C@H](O)[C@@H](NC(C)=O)[C@H]([C@H](O)[C@H](O)CO)O4)[C@H]3O)[C@H](O[C@@H]3O[C@@H](C)[C@@H](O)[C@@H](O)[C@@H]3O)[C@H]2NC(C)=O)[C@H]1O [Z, Ethyl(sodium(5-acetamido-3,5-dideoxy-α-D-glycero-D-galacto-2-nonulopyanosylonate))-(2-3)-O-(β-D-galactopyranosyl)-(1-4)-O-((α-L-fucopyranosyl)-(1-3))-O-(2-acetamido-2-deoxy-β-D-glucopyranosyl)-(1-3)-O-β-D-galactopyranoside] | inhibited leukocyte rolling | 2.1 ± 0.2 | 2.3 ± 1.9 | 2.0 ± 1.2 | 29 ± 0.2 | 355 ± 14 | blocked IgG | effect on leukocyte adherence induced by 10^-5 M histamine ([1]; 10 mg/Kg i.v.): significantly attenuated; effect on IgA immune complex-induced neutrophil accumulation and pathological sequelae [3]: not IgA; adhesion of cat PMNs to thrombin stimulated coronary vascular endothelium ([4]; 250μM, thrombin 2 unit/mL): blocked the adhesion of cat PMNs; adherence of PMNs to coronary endothelium from treated animals ([4]; endothelium from treated animals versus control animals): less than that determined in control animals; effect on lung MPO content ([2]; 50 μg (FIG. 19)): did not significantly reduce MPO content; effect on lung MPO content ([2]; 100, 200 and 300 μg (FIG. 19)): significant reductions; effect on vascular permeability ([2]; all doses, 50-500 μg (FIG. 19)): significant reductions in vascular permeability; reduction in MPO content [2, 5]: 27%; reduction in permeability [2, 5]: 20%; reduction in hemorrhage ([2]; i.v. at 2.5, 3.0 and 3.5 h (FIG. 18), P=N.S.): 21%; effect on hemorrhage ([2]; two highest doses (FIG. 19)): statistically significant reductions in hemorrhage
